# Columns and labels:
# NR4A1 = biological target: T1, NR4A1 (Mus musculus, UniProt P12813); settings: C2C12 muscle cells; cited from earlier work
# T1 construct: endogenous in cells; host or cells: C2C12 muscle cells
# ESECT-7 cells [1] = experiment: Western blotting of growth promoting and proapoptotic gene products, ESECT-7; assay type: cell-based, human
# Source text: (§1) Reagents and Antibodies: Annexin V Dead Cell Apoptosis Kit (V13241) was purchased from Invitrogen. The primary antibodies used were EGFR (4267, 1:1000), Survivin (2808, 1:1000), c-Caspase-3 (9661, 1; 1000), c-PARP (9541, 1:1000) from Cell Signaling Technology (Danvers, MA) and c-Myc (sc-40, 1:500), Bcl-2 (sc-509, 1:500) and Bax (sc-20067, 1:500) from Santacruz Biotechnology (Santacruz, CA), NR4A1 (ab109180, 1:3000) and α-SMA (ab32575, 1:3000) from Abcam (Cambridge, MA), β-Actin (A1978, 1:10000) from Sigma Aldrich Corporation (Milwaukee, WI). COL1A1 (GTX112731, 1:2000), CTGF (GTX124232, 1:2000) and FN (GTX112794, 1:2000) from GeneTex, Inc. (Irvine, CA). Secondary antibodies for rabbit (7074), mouse (7076) and Anti-rabbit Alexa Fluor (4412) purchased from Cell Signaling Technology (Danvers, MA). […]
# (§2) Western Blotting: ESECT-7 and ESECT-40 cells (2×105) were seeded and allowed to attach for 24 hr, and cells were then treated for 24 hr with either DMSO or different concentrations of DIM-C-pPhOH and DIM-C-pPhOH-3-Cl-5-OCH3. Cells were then lysed and whole-cell lysates were resolved in 10% SDS-PAGE gels and proteins were transferred using PVDF membrane by wet blotting followed by primary and secondary antibody incubation and detected using ECL reagent as described.
# human ectopic lesions = experiment: Endometriosis mouse model by hetero-transplantation with human endometrial cells in SCID mice; assay type: in vivo; settings: SCID mice with HECs carrying luciferase; 25 mg/kg once a day, 30 days; p=0.022; FIGS. 9B, 9C
# Source text: Endometriosis Mouse Model by Hetero-transplantation with immortalized human endometrial cells: The luciferase stable immortalized human endometrial epithelial cells […] and luciferase stable immortalized human endometrial stromal cells (LIHESCs) were generated from IHESCs isolated from endometria obtained from hysterectomies for benign conditions and IHEECs generated from ovarian endometrioma by transducing lentivirus-expressing luciferase and then the expression of luciferase was validated with the luciferase activity assay. Matrigel contained the mixture of LIHESCs (1×10^6 cells) and LIHEECs (1×10^6 cells) were injected into the peritoneal cavity of female severe combined immune deficiency (SCID) mice (6 weeks old) to induce endometriosis. Henceforth, we refer to the mixture of LIHEECs and LIHESCs as human endometrial cells (HEC). […] To noninvasively determine the progression of human ectopic lesions, we injected mice with 150 mg/kg of D-Luciferin intra-peritoneally 5 min before imaging, and then determined luciferase activities of human ectopic lesions in mice using In Vivo Image System.
# IHEECs = experiment: Expression of fibrosis markers in IHEECs; assay type: cell-based, human; settings: 24 hours, vs control, FIG. 6B
# ESECT-40 cells [2] = experiment: Cell proliferation assay (MTT), ESECT-40; assay type: cell-based, human; settings: 24 hr; 5-10 μM DIM-C-pPhOH-3-Cl-5-OCH3, 15-25 μM DIM-C-pPhOH; FIG. 2C
# Protocol: (§3) Primary human endometriotic stromal cells from endometriosis patients: Ovarian endometrioma were isolated from endometriosis patients in the proliferative phase following the IRB-approved protocol. Isolated ectopic lesions were digested with collagenase type 3 (300 μg/ml) and DNaseI (40 μg/ml) for 90 min at 37° C., and then tissues were filtered through 150, 100, and 40 μm sieves to isolate endometrial stromal cells. The collected endometrial stromal cells were cultured in DMEM/F12 with 10% FBS plus 1× antibiotic/antimycotic solution and then validated by flow cytometry with a CD90 antibody (a mesenchymal marker). Henceforth, we refer to the stromal cells as ectopic endometrium isolated ovarian endometrioma (ESECT). As the control, primary normal endometrial stromal cells isolated from the biopsy of the eutopic endometrium of normal women (NEM) in the proliferative phase. All cells were incubated at 37° C. in CO2 incubator in an atmosphere of humidified 5% CO2 and 95% air.
# (§4) Cell proliferation assay: Patient-derived endometriotic cells ESECT-7 and ESECT-40 were seeded into a 96-well plate, and the cells were then treated for 24 hr with either DMSO or different concentrations of DIM-C-pPhOH and DIM-C-pPhOH-3-Cl-5-OCH3. […] Dimethyl sulfoxide (DMSO) was added and incubated at […] for 10 min, and absorbance was measured at 570 nm.
# ESECT-7 cells [3] = experiment: α-SMA immunofluorescence, ESECT-7; assay type: cell-based, human; settings: vs control, FIG. 5A
# Protocol: Immunofluorescence: ESECT-7 and ESECT-40 cells were seeded in Nunc chambered cover-glass followed by various drug treatments. The cells were fixed with 4% paraformaldehyde in PBS for 20 minutes at 37° C. Cells were then blocked and incubated overnight with primary α-SMA antibody in the buffer (5% bovine serum albumin in PBS) at 4° C., followed by incubation with Alexa Fluor conjugated secondary antibody at a dilution of 1:250 for 2 hours at room temperature. Finally, cells were observed using a Zeiss confocal fluorescence microscope.
# ESECT-40 cells [4] = experiment: Western blotting of growth promoting and proapoptotic gene products, ESECT-40; assay type: cell-based, human
# Source text: as §1, §2
# ESECT-7 cells [5] = experiment: Cell proliferation assay (MTT), ESECT-7; assay type: cell-based, human; settings: 24 hr; 5-10 μM DIM-C-pPhOH-3-Cl-5-OCH3, 15-25 μM DIM-C-pPhOH; FIG. 2C
# Protocol: as §3, §4
# Source text for mouse ectopic lesions: Endometriosis Mouse Model with Auto-transplantation: One uterine horn was isolated from a female mouse (6 weeks old, C57BL/6J) under anesthesia, and then the uterine horn was longitudinally cut. Using a 2-mm dermal biopsy punch, one endometrial fragment was obtained from the isolated uterus and subsequently sutured to the mesenteric membrane attached to the intestine of the same mouse. The abdominal incision then was closed by suture. Before harvesting ectopic lesions, the mouse estrous cycle was determined using vaginal cytology. At the estrus stage in the 3rd week after endometriosis induction, ectopic lesions were isolated from mice with endometriosis. As the endometriosis control, uteri were isolated from C57BL/6J female mice without endometriosis at the estrus stage at 10 weeks of age.
# Endometriosis Treatment with C-DIM: Endometriosis was induced to mice with auto- and hetero-transplantation method as described above. […] In the case of the auto-transplantation model, we isolated mouse ectopic lesions treated with C-DIM versus the vehicle from mice with endometriosis at the estrus stage in the 3rd week after drug treatment and then determined their volume. In the case of the hetero-transplantation model, we determined the luciferase activity of the human ectopic lesions treated with C-DIM versus vehicle in SCID mice with endometriosis during the drug treatment.
# T1 sequence (P12813 whole entry): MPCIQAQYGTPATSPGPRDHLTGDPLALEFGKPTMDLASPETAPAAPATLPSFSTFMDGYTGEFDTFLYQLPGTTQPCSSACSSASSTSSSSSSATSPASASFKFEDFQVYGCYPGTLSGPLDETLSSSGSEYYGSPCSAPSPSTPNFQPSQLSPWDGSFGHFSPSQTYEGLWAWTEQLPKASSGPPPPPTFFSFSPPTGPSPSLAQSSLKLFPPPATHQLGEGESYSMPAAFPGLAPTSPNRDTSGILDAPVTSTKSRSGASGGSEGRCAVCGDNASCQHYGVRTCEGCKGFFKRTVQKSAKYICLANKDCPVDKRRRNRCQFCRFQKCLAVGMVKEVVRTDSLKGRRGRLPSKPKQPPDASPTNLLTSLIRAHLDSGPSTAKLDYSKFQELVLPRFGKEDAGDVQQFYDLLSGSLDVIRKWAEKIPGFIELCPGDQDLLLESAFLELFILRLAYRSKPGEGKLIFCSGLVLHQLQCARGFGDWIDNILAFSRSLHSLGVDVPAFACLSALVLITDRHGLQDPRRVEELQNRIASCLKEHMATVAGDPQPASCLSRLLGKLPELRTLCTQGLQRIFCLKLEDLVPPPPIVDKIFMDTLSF
smiles,measurement,setting,value
COc1cc(C(c2c[nH]c3ccccc23)c2c[nH]c3ccccc23)cc(Cl)c1O [DIM-C-pPhOH-3-Cl-5-OCH3],"NR4A1 agonist activity, induction of genes involved in glucose uptake",NR4A1,worked as NR4A1 agonists
same,expression of EGFR and cMyc,"ESECT-7 cells [1]; 5-10 μM, 24 hr, FIG. 2D",downregulated
same,"markers of apoptosis (downregulation of survivin and Bcl-2, induced Bax, cleaved PARP and caspase-3)","ESECT-7 cells [1]; Five μM, 24 hours, FIG. 3C",significantly induced several markers of apoptosis
same,reduction of luciferase activity in human ectopic lesions compared with the vehicle,human ectopic lesions,13.4 fold
same,"expression of fibrosis markers (α-SMA, COL1A1, FN, CTGF)",IHEECs,decreased expression of fibrosis markers
same,growth of ESECT-40 cells,ESECT-40 cells [2],effectively inhibited the growth
same,expression of SMA levels,ESECT-7 cells [3],decreased expression of SMA levels
same,expression of EGFR and cMyc,"ESECT-40 cells [4]; 5-10 μM, 24 hr, FIG. 2D",downregulated
same,"markers of apoptosis (downregulation of survivin and Bcl-2, induced Bax, cleaved PARP and caspase-3)","ESECT-40 cells [4]; Five μM, 24 hours, FIG. 3C",significantly induced several markers of apoptosis
same,reduction of the volume of ectopic lesions compared to the vehicle,"mouse ectopic lesions; 25 mg/kg every day, intraperitoneal, three weeks, p=0.015, FIG. 8D",2.4 fold
same,bodyweight of mice as compared to the vehicle,"mouse ectopic lesions; mouse, in vivo",did not change
same,growth of ESECT-7 cells,ESECT-7 cells [5],effectively inhibited the growth

# Source: patent US12622892B2, “Methods for treating endometriosis” (THE TEXAS A&M UNIVERSITY SYSTEM, priority 2020, dated 2026)
